Tests used:
Rev-Erb alpha = target: T1, Rev-Erb alpha (Homo sapiens, UniProt P20393); assay: M2H (mammalian two-hybrid) cellular activation assay of Rev-Erb alpha; type: cell-based; details: M2H assay, HEK293 cells; for EC50: Gal4-Rev-Erb alpha / VP16-NCoR, luciferase reporter; for Emax: relative to DMSO, at the tested dose, read-out: TOP activation
T1 sequence (P20393 284-614 limits assumed): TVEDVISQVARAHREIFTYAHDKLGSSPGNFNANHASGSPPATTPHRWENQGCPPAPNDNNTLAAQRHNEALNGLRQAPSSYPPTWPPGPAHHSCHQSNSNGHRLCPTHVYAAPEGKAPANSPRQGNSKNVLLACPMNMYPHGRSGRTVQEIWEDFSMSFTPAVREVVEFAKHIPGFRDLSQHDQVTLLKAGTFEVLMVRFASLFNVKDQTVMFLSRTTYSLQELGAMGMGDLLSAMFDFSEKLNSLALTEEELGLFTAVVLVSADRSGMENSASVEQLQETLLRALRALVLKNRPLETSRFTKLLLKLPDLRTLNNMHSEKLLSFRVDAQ
Method in brief: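 Six-point dose-response, 18 h, 37 °C, serum-free, in HEK293 cells carrying a Gal4-RE luciferase reporter with Gal4-Rev-Erb alpha or beta plus VP16-NCoR (corepressor interaction readout). EC50 and TOP activation (%) derived from luminescence across four experiments.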

| Structure (SMILES) | melting point [°C] | EC50 (Rev-Erb alpha) [nM] | Emax (Rev-Erb alpha) [%] |
| --- | --- | --- | --- |
| Clc1nnc2ccc(Oc3cc(CN4CCOCC4)ccc3-c3ccccc3)nn12 [Cpd.4-64, 3-chloro-6-(4-morpholinomethyl-biphenyl-2-yloxy)-[1,2,4]triazolo[4,3-b]pyridazine] | 162 to 163 | 1000 to 6000 | – |
| NC(=O)c1ccc(Oc2ccc3nnc(Cl)n3n2)c(-c2ccccc2)c1 [Cpd.4-70, 3-chloro-6-(5-aminocarbonyl-biphenyl-2-yloxy)-[1,2,4]triazolo[4,3-b]pyridazine] | 196.5 to 198.4 | > 6000 | > 130 |
| Oc1cccc(-c2cc(F)ccc2Oc2ccc3nnc(Cl)n3n2)c1 [Cpd.4-77, 3-chloro-6-(5-fluoro-3′-hydroxy-biphenyl-2-yloxy)-[1,2,4]triazolo[4,3-b]pyridazine] | 241.3 to 244.5 | 1000 to 6000 | – |
| Nc1cccc(-c2cc(F)ccc2Oc2ccc3nnc(Cl)n3n2)c1 [Cpd.4-119, 3-chloro-6-(3′-amino-5-fluorobiphenyl-2-yloxy)-[1,2,4]triazolo[4,3-b]pyridazine] | 248.2 | 1000 to 6000 | – |
| FC(F)(F)c1ccc(CN2CCOCC2)c(Oc2ccc3nnc(Cl)n3n2)c1 [Cpd.4-122, 3-chloro-6-(2-(morpholinomethyl)-5-(trifluoromethyl)phenoxy)-[1,2,4]triazolo[4,3-b]pyridazine] | 55 to 58 | 1000 to 6000 | – |
| FC(F)(F)c1ccc(-c2cccnc2)c(Oc2ccc3nnc(C(F)(F)F)n3n2)c1 [Cpd.4-126, 3-(trifluoromethyl)-6-(2-(pyridin-3-yl)-5-(trifluoromethyl)phenoxy)-[1,2,4]triazolo[4,3-b]pyridazine] | 69 to 70 | 1000 to 6000 | – |
| COc1nccc(C)c1-c1ccc(C(F)(F)F)cc1Oc1ccc2nnc(Cl)n2n1 [Cpd.4-130, 3-chloro-6-((2-(2-methoxy-4-methylpyridin-3-yl))-5-(trifluoromethyl)phenoxy)-[1,2,4]triazolo[4,3-b]pyridazine] | 129 to 132 | 1000 to 6000 | – |
| COc1ncc(F)cc1-c1ccc(C(F)(F)F)cc1Oc1ccc2nnc(Cl)n2n1 [Cpd.4-131, 3-chloro-6-((2-(2-methoxy-5-fluoropyridin-3-yl))-5-(trifluoromethyl)phenoxy)-[1,2,4]triazolo[4,3-b]pyridazine] | 60 to 68 | 100 to 1000 | – |
| Cc1cccc(-c2ccccc2Oc2ccc3nnc(Cl)n3n2)c1 [Cpd.4-132, 3-chloro-6-(3′-methylbiphenyl-2-yloxy)-[1,2,4]triazolo[4,3-b]pyridazine] | 51 | 100 to 1000 | – |
| Cc1cccc(-c2cc(F)ccc2Oc2ccc3nnc(Cl)n3n2)c1 [Cpd.4-135, 3-chloro-6-(5-fluoro-3′-methylbiphenyl-2-yloxy)-[1,2,4]triazolo[4,3-b]pyridazine] | 94.5 to 95.1 | 100 to 1000 | – |
| COc1cccc(-c2ccc(C(F)(F)F)cc2Oc2ccc3nnc(C(F)(F)F)n3n2)c1 [Cpd.4-137, 3-(trifluoromethyl)-6-(3′-methoxy-4-(trifluoromethyl)biphenyl-2-yloxy)-[1,2,4]triazolo[4,3-b]pyridazine] | 102.5 | 100 to 1000 | – |
| Oc1cccc(-c2ccc(C(F)(F)F)cc2Oc2ccc3nnc(C(F)(F)F)n3n2)c1 [Cpd.4-138, 3-(trifluoromethyl)-6-(3′-hydroxy-4-(trifluoromethyl)biphenyl-2-yloxy)-[1,2,4]triazolo[4,3-b]pyridazine] | 195 | 1000 to 6000 | – |
| CCOc1ccc(Oc2ccc3nnc(Cl)n3n2)c(-c2ccccc2)c1 [Cpd.4-139, 3-chloro-6-(5-ethoxybiphenyl-2-yloxy)-[1,2,4]triazolo[4,3-b]pyridazine] | 89.7 to 90.8 | 100 to 1000 | – |
| COC(=O)c1cccc(-c2ccccc2Oc2ccc3nnc(Cl)n3n2)c1 [Cpd.4-140, 3-Chloro-6-(3′-(methyloxycarbonyl)biphenyl-2-yloxy)-[1,2,4]triazolo[4,3-b]pyridazine] | 236 to 246 | > 6000 | > 130 |
| Fc1ccc(Oc2ccc3nnc(C(F)(F)F)n3n2)c(-c2ccccc2)c1 [Cpd.4-141, 3-(trifluoromethyl)-6-(5-fluorobiphenyl-2-yloxy)-[1,2,4]triazolo[4,3-b]pyridazine] | 85.3 to 87.7 | 1000 to 6000 | – |
| COc1ccc(C(=O)c2ccccc2)c(Oc2ccc3nnc(Cl)n3n2)c1 [Cpd.4-144, 3-chloro-6-(2-benzoyl-5-methoxy-phenoxy)-[1,2,4]triazolo[4,3-b]pyridazine] | 175 to 176 | 100 to 1000 | – |
| O=C(c1ccccc1)c1cc(Br)ccc1Oc1ccc2nnc(Cl)n2n1 [Cpd.4-145, 3-chloro-6-(4-bromo-2-benzoyl-phenoxy)-[1,2,4]triazolo[4,3-b]pyridazine] | 135 to 137 | 1000 to 6000 | – |

Results, then the compound that gave them:

| melting point [°C] | EC50 (Rev-Erb alpha) [nM] | Emax (Rev-Erb alpha) [%] | Structure (SMILES) |
| --- | --- | --- | --- |
| 157 to 158 | < 100 | – | CNc1ccc(Oc2ccc3nnc(Cl)n3n2)c(-c2ccccc2)c1 [Cpd.4-47, 3-chloro-6-(5-methylamino-biphenyl-2-yloxy)-[1,2,4]triazolo[4,3-b]pyridazine] |
| 132 to 135 | 100 to 1000 | – | CCCCNc1ccc(-c2ccccc2)c(Oc2ccc3nnc(Cl)n3n2)c1 [Cpd.4-50, 3-chloro-6-(4-N-butylamino-biphenyl-2-yloxy)-[1,2,4]triazolo[4,3-b]pyridazine] |
| 124 to 128 | 100 to 1000 | – | CC(C)CNc1ccc(-c2ccccc2)c(Oc2ccc3nnc(Cl)n3n2)c1 [Cpd.4-51, 3-chloro-6-(4-N-2-methylpropylamino-biphenyl-2-yloxy)-[1,2,4]triazolo[4,3-b]pyridazine] |
| 106 to 109 | 100 to 1000 | – | CCCN(CCC)c1ccc(Oc2ccc3nnc(Cl)n3n2)c(-c2ccccc2)c1 [Cpd.4-53, 3-chloro-6-(5-dipropylamino-biphenyl-2-yloxy)-[1,2,4]triazolo[4,3-b]pyridazine] |
| 55 to 58 | < 100 | – | CCN(CC)c1ccc(Oc2ccc3nnc(Cl)n3n2)c(-c2ccccc2)c1 [Cpd.4-55, 3-chloro-6-(5-diethylamino-biphenyl-2-yloxy)-[1,2,4]triazolo[4,3-b]pyridazine] |
| 55 to 58 | 100 to 1000 | – | CCCNc1ccc(Oc2ccc3nnc(Cl)n3n2)c(-c2ccccc2)c1 [Cpd.4-56, 3-chloro-6-(5-propylamino-biphenyl-2-yloxy)-[1,2,4]triazolo[4,3-b]pyridazine] |
| 119 to 122 | 100 to 1000 | – | CN(Cc1ccccc1)Cc1ccc(-c2ccccc2)c(Oc2ccc3nnc(Cl)n3n2)c1 [Cpd.4-60, 3-chloro-6-(4-N-methyl-N-benzylaminomethyl-biphenyl-2-yloxy)-[1,2,4]triazolo[4,3-b]pyridazine] |
| 62 to 67 | < 100 | – | CC(C)CNc1ccc(Oc2ccc3nnc(Cl)n3n2)c(-c2ccccc2)c1 [Cpd.4-67, 3-chloro-6-(5-isobutylamino-biphenyl-2-yloxy)-[1,2,4]triazolo[4,3-b]pyridazine] |
| 225.4 to 228.2 | 100 to 1000 | – | FC(F)(F)Oc1ccc(-c2ccccc2)c(Oc2ccc3nnc(Cl)n3n2)c1 [Cpd.4-68, 3-chloro-6-(4-trifluoromethyloxy-biphenyl-2-yloxy)-[1,2,4]triazolo[4,3-b]pyridazine] |
| 198 to 200 | 100 to 1000 | – | FC(F)(F)c1ccc(-c2ccc(Cl)nc2)c(Oc2ccc3nnc(Cl)n3n2)c1 [Cpd.4-101, 3-chloro-6-(2-(6-chloropyridin-3-yl)-5-(trifluoromethyl)phenoxy)-[1,2,4]triazolo[4,3-b]pyridazine] |
| 111.6 | 100 to 1000 | – | COc1ccc(-c2cccc(C(F)(F)F)c2)c(Oc2ccc3nnc(Cl)n3n2)c1 [Cpd.4-113, 3-chloro-6-{[4-methoxy-3′-(trifluoromethyl)biphenyl-2-yl]oxy}-[1,2,4]triazolo[4,3-b]pyridazine] |
| 147.8 | 100 to 1000 | – | Fc1ccc(Oc2ccc3nnc(Cl)n3n2)c(-c2ccc(F)c(F)c2)c1 [Cpd.4-115, 3-chloro-6-(5,3′,4′-trifluorobiphenyl-2-yloxy)-[1,2,4]triazolo[4,3-b]pyridazine] |
| 141.1 | 100 to 1000 | – | Fc1ccc(-c2cc(F)ccc2Oc2ccc3nnc(Cl)n3n2)cc1 [Cpd.4-116, 3-chloro-6-(5,4′-difluorobiphenyl-2-yloxy)-[1,2,4]triazolo[4,3-b]pyridazine] |
| 173 | 100 to 1000 | – | Clc1ccc(-c2ccccc2Oc2ccc3nnc(Cl)n3n2)cc1 [Cpd.4-117, 3-chloro-6-(4′-chlorobiphenyl-2-yloxy)-[1,2,4]triazolo[4,3-b]pyridazine] |
| 172 | 100 to 1000 | – | Fc1ccc(Oc2ccc3nnc(Cl)n3n2)c(-c2ccc(Cl)cc2)c1 [Cpd.4-118, 3-chloro-6-(4′-chloro-5-fluorobiphenyl-2-yloxy)-[1,2,4]triazolo[4,3-b]pyridazine] |
| 106.2 | 100 to 1000 | – | Fc1cccc(-c2cc(F)ccc2Oc2ccc3nnc(Cl)n3n2)c1 [Cpd.4-120, 3-chloro-6-(3′,5-difluorobiphenyl-2-yloxy)-[1,2,4]triazolo[4,3-b]pyridazine] |
